Assay results: US20240217978A1 (CHONG KUN DANG PHARMACEUTICAL CORP., priority 2021, published 2024)

molecular target: human adenosine A2a receptor (Homo sapiens (Human), UniProt P29274); assay: A2a receptor binding affinity, [3H]-NECA radioligand binding test; conditions: [3H]-NECA 37 nM; membrane from HEK-293 cells transfected with human adenosine A2a receptor
Outline: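 Membranes from HEK-293 cells expressing human A2a receptor were incubated with [3H]-NECA (final 37 nM) and compound for 1 h at room temperature in 50 mM Tris, 10 mM MgCl2, 1 mM EDTA, pH 7.4. Bound ligand was filtered on PEI-coated plates and counted by scintillation to derive IC50 (μM).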

human adenosine A2a receptor, sequence (P29274 whole entry): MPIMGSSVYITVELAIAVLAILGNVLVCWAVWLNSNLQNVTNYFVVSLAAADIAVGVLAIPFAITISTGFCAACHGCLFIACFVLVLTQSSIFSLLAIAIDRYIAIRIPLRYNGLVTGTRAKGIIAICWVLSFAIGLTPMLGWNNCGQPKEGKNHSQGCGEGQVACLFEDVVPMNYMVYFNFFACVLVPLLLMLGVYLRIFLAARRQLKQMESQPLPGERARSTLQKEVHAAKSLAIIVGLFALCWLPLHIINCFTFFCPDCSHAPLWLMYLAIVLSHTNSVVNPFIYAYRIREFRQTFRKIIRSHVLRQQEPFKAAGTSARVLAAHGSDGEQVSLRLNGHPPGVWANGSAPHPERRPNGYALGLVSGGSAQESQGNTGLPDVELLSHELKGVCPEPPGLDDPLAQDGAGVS

IC50 [nM] | Structure (SMILES)
2 | Nc1nc(N2CCC[C@H]2C(=O)N2CCN(c3ncccc3C(F)(F)F)CC2)nc2nc(-c3ccco3)nn12 [Example 124, (S)-(1-(7-amino-2-(furan-2-yl)-[1,2,4]triazolo[1,5-a][1,3,5]triazin-5-yl)pyrrolidin-2-yl)(4-(3-(trifluoromethyl)pyridin-2-yl)piperazin-1-yl)methanone]
9 | Nc1nc(N2CCC[C@H]2C(=O)N2CCN(c3nccs3)CC2)nc2nc(-c3ccco3)nn12 [Example 125, 2-(4-((7-amino-2-(furan-2-yl)-[1,2,4]triazolo[1,5-a][1,3,5]triazin-5-yl)-L-prolyl)piperazin-1-yl)thiazole]
9 | Nc1nc(N2CCC[C@H]2C(=O)N2CCN(c3cnccn3)CC2)nc2nc(-c3ccco3)nn12 [Example 126, (S)-(1-(7-amino-2-(furan-2-yl)-[1,2,4]triazolo[1,5-a][1,3,5]triazin-5-yl)pyrrolidin-2-yl)(4-(pyrazin-2-yl)piperazin-1-yl)methanone]
3 | Nc1nc(N2CCC[C@H]2C(=O)N2CCN(c3ncccn3)CC2)nc2nc(-c3ccco3)nn12 [Example 127, (S)-(1-(7-amino-2-(furan-2-yl)-[1,2,4]triazolo[1,5-a][1,3,5]triazin-5-yl)pyrrolidin-2-yl)(4-(pyrimidin-2-yl)piperazin-1-yl)methanone]
3 | Nc1nc(N2CCC[C@H]2C(=O)N2CCC(c3ccccc3)CC2)nc2nc(-c3ccco3)nn12 [Example 128, (S)-(1-(7-amino-2-(furan-2-yl)-[1,2,4]triazolo[1,5-a][1,3,5]triazin-5-yl)pyrrolidin-2-yl)(4-phenylpiperidin-1-yl)methanone]
10 | CC1CN(C(=O)[C@H](C)Nc2nc(N)n3nc(-c4ccco4)nc3n2)CC(C)N1C(=O)N1CCOCC1 (stereo partly drawn) [Example 129, (2S)-2-((7-amino-2-(furan-2-yl)-[1,2,4]triazolo[1,5-a][1,3,5]triazin-5-yl)amino)-1-(3,5-dimethyl-4-(morpholine-4-carbonyl)piperazin-1-yl)propan-1-one]
4 | CCc1cccc(NC(=O)C2CCN(C(=O)[C@@H]3CCCN3c3nc(N)n4nc(-c5ccco5)nc4n3)CC2)c1 [Example 131, 1-((7-amino-2-(furan-2-yl)-[1,2,4]triazolo[1,5-a][1,3,5]triazin-5-yl)-L-prolyl)-N-(3-ethylphenyl)piperidin-4-carboxamide]
11 | Nc1nc(N2CCC[C@H]2C(=O)N2CCC(C(=O)Nc3cccc(C(F)F)c3)CC2)nc2nc(-c3ccco3)nn12 [Example 132, 1-((7-amino-2-(furan-2-yl)-[1,2,4]triazolo[1,5-a][1,3,5]triazin-5-yl)-L-prolyl)-N-(3-(difluoromethyl)phenyl)piperidin-4-carboxamide]
11 | CN(C(=O)C1CCN(C(=O)[C@@H]2CCCN2c2nc(N)n3nc(-c4ccco4)nc3n2)CC1)c1ccccc1 [Example 133, 1-((7-amino-2-(furan-2-yl)-[1,2,4]triazolo[1,5-a][1,3,5]triazin-5-yl)-L-prolyl)-N-methyl-N-phenylpiperidin-4-carboxamide]
86 | CN1CCN(C(=O)[C@@H]2CCCN2c2nc(N)n3nc(-c4ccco4)nc3n2)CC1 [Example 134, (S)-(1-(7-amino-2-(furan-2-yl)-[1,2,4]triazolo[1,5-a][1,3,5]triazin-5-yl)pyrrolidin-2-yl)(4-methylpiperazin-1-yl)methanone]
24 | CCCN1CCN(C(=O)[C@@H]2CCCN2c2nc(N)n3nc(-c4ccco4)nc3n2)CC1 [Example 135, (S)-(1-(7-amino-2-(furan-2-yl)-[1,2,4]triazolo[1,5-a][1,3,5]triazin-5-yl)pyrrolidin-2-yl)(4-propylpiperazin-1-yl)methanone]
4 | CC(C)N1CCN(C(=O)[C@@H]2CCCN2c2nc(N)n3nc(-c4ccco4)nc3n2)CC1 [Example 136, (S)-(1-(7-amino-2-(furan-2-yl)-[1,2,4]triazolo[1,5-a][1,3,5]triazin-5-yl)pyrrolidin-2-yl)(4-isopropylpiperazin-1-yl)methanone]
48 | CC(C)(C)N1CCN(C(=O)[C@@H]2CCCN2c2nc(N)n3nc(-c4ccco4)nc3n2)CC1 [Example 137, (S)-(1-(7-amino-2-(furan-2-yl)-[1,2,4]triazolo[1,5-a][1,3,5]triazin-5-yl)pyrrolidin-2-yl)(4-(tert-butyl)piperazin-1-yl)methanone]
2 | CCCCCN1CCN(C(=O)[C@@H]2CCCN2c2nc(N)n3nc(-c4ccco4)nc3n2)CC1 [Example 138, (S)-(1-(7-amino-2-(furan-2-yl)-[1,2,4]triazolo[1,5-a][1,3,5]triazin-5-yl)pyrrolidin-2-yl)(4-pentylpiperazin-1-yl)methanone]
28 | Nc1nc(N2CCC[C@H]2C(=O)N2CCN(C3CC3)CC2)nc2nc(-c3ccco3)nn12 [Example 139, (S)-(1-(7-amino-2-(furan-2-yl)-[1,2,4]triazolo[1,5-a][1,3,5]triazin-5-yl)pyrrolidin-2-yl)(4-cyclopropylpiperazin-1-yl)methanone]
10 | CC(C)OCCN1CCN(C(=O)[C@@H]2CCCN2c2nc(N)n3nc(-c4ccco4)nc3n2)CC1 [Example 140, (S)-(1-(7-amino-2-(furan-2-yl)-[1,2,4]triazolo[1,5-a][1,3,5]triazin-5-yl)pyrrolidin-2-yl)(4-(2-isopropoxyethyl)piperazin-1-yl)methanone]
15 | COCCOCCN1CCN(C(=O)[C@@H]2CCCN2c2nc(N)n3nc(-c4ccco4)nc3n2)CC1 [Example 141, (S)-(1-(7-amino-2-(furan-2-yl)-[1,2,4]triazolo[1,5-a][1,3,5]triazin-5-yl)pyrrolidin-2-yl)(4-(2-(2-methoxyethoxy)ethyl)piperazin-1-yl)methanone]
13 | Nc1nc(N2CCC[C@H]2C(=O)N2CCC(C(=O)N3CCCCC3)CC2)nc2nc(-c3ccco3)nn12 [Example 142, (1-((7-amino-2-(furan-2-yl)-[1,2,4]triazolo[1,5-a][1,3,5]triazin-5-yl)-L-prolyl)piperidin-4-yl)(piperidin-1-yl)methanone]
20 | CCCCN1CCN(C(=O)[C@@H](Nc2nc(N)n3nc(-c4ccco4)nc3n2)C(C)C)CC1 [Example 143, (S)-2-((7-amino-2-(furan-2-yl)-[1,2,4]triazolo[1,5-a][1,3,5]triazin-5-yl)amino)-1-(4-butylpiperazin-1-yl)-3-methylbutan-1-one]
14 | CC(C)[C@H](Nc1nc(N)n2nc(-c3ccco3)nc2n1)C(=O)N1CCN(CC(F)(F)F)CC1 [Example 144, (S)-2-((7-amino-2-(furan-2-yl)-[1,2,4]triazolo[1,5-a][1,3,5]triazin-5-yl)amino)-3-methyl-1-(4-(2,2,2-trifluoroethyl)piperazin-1-yl)butan-1-one]
13 | CN1CCN(C(=O)[C@@H]2CCCN2c2nc(N)n3nc(-c4ccco4)nc3n2)CC1=O [Example 145, 4-((7-amino-2-(furan-2-yl)-[1,2,4]triazolo[1,5-a][1,3,5]triazin-5-yl)-L-prolyl)-1-methylpiperazin-2-one]
18 | COC1CCN(C(=O)[C@@H]2CCCN2c2nc(N)n3nc(-c4ccco4)nc3n2)CC1 [Example 146, (S)-(1-(7-amino-2-(furan-2-yl)-[1,2,4]triazolo[1,5-a][1,3,5]triazin-5-yl)pyrrolidin-2-yl)(4-methoxypiperidin-1-yl)methanone]
